Assays:
[1] = test system: progenitor cells in spleen and liver; test: CFU-C assays of spleen and liver after treatment; type: in vivo, mice; conditions: after CASIN injection
[2] = test system: human CD34^+ umbilical cord blood cells; test: adhesion of human CD34+ HCB cells; type: cell-based; conditions: 5 μM
Procedure: FIG. 4B. Relative adhesion of CD34^+ HCB cells in the presence of CASIN at dose of 5 μM in comparison to that of control.
(§1) To begin to study potential utility of CASIN in human hematopoietic stem cell mobilization, a series of cellular assays were carried out to determine the effects on human CD34^+ umbilical cord blood cells (HCBs). […] The effects of CASIN on human hematopoietic cell mobilization was therefore tested using a well established preclinical in vivo model (NOD/SCID-Hcb) of human hematopoietic function, where fresh CD34^+ hCB cells were transplanted into sub-lethally irradiated NOD/SCIDs by intrafemoral injection, and repopulated and maintained human hematopoietic reconstitution in the bone marrow of NOD/SCID recipient mice (FIG. 9b, FIG. 11) (Larochelle, A. et al. Nat Med 2, 1329-1337 (1996); Bhatia, M., et al. Proc Natl Acad Sci USA 94, 5320-5325 (1997)). Intravenous injections of CASIN were applied when human cells were well engrafted in the NOD/SCID recipients.

Cdc42WT/WT MEF cells = test: Example 7 adhesion, migration, actin polymerization in MEF cells; type: cell-based, mouse; conditions: in vitro
Procedure: To further verify the specificity of CASIN on Cdc42 activity inhibition, adhesion, migration, Actin polymerization is evaluated in both Cdc42−/− and Cdc42WT/WT MEF cells under the following five groups: (1) Cdc42WT/WT cells without treatment; (2) Cdc42−/− cells without treatment; (3) Cdc42WT/WT cells treated with CASIN; (4) Cdc42WT/WT cells treated with control medium; (5) Cdc42−/− cells treated with CASIN, in order to verify that CASIN function through inhibiting Cdc42. similarly, activities of the down stream effectors of Cdc42, Rac, and Rho under the five groups are monitored by western blot as above.

[3] = test system: C57Bl/6, C3H/HeJ and DBA/2 mice; test: Example 7 HPC mobilization in comparison and combination with G-CSF; conditions: mouse, in vivo
Procedure: Broad interindividual variability exists in mobilization of HSC/Ps in different strains of mice and man. In some patients, G-CSF is a poor mobilizer. Therefore, the mobilizing capability of CASIN in comparison with G-CSF is evaluated, and in combination with G-CSF, in strains of mice that were reported to differ in responsiveness to G-CSF. Besides C57Bl/6, included in this set of experiments are C3H/HeJ and DBA/2 mice which respond very well to the mobilizing effects of G-CSF compared with C57Bl/6 mice. For each strain of mice, four groups are divided according to regimens used for mobilization: (1) Control medium; (2) CASIN administration; (3)G-CSF: twice a day for 2 days (4) G-CSF plus CASIN administration. Mice are bled 18 h after the last injection, and blood is plated in triplicate for CFU-C assay. Numbers of HPCs in CFU-E, BFU-E, CFU-GM, and CFU-GEMM are calculated per ml of blood later on reflecting the mobilization capacity of different regimens on HPCs.

Cdc42 [4] = target: Cdc42 (Mus musculus, UniProt P60766); test: Rho GTPase pull-down of BM cells after in vivo administration; design: from tissue; host or cells: bone marrow (LDBM) cells of C57Bl/6 mice; conditions: C57Bl/6 mice; FIG. 8a legend: BM cells harvested 20 mins after CASIN administration
Sequence of Cdc42 (Mus musculus, UniProt P60766) (P60766 whole entry): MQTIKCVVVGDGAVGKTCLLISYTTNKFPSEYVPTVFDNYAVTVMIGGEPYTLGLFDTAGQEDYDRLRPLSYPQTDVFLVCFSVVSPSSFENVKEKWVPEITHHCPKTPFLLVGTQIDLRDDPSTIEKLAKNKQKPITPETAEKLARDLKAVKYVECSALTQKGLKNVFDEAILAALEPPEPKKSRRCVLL
Procedure: FIG. 8A. CASIN inhibited Cdc42 activity in BM cells harvested from C57Bl/6 mice 20 mins after CASIN administration.
Whether CASIN administration can induce mobilization of HSC/Ps to peripheral blood of C57Bl/6 mice, mimicking the phenotype observed in Cdc42 conditional knockout mice, was evaluated. First of all, mobilization of hematopoietic progenitor cells was examined by CFU-C assays functionally (FIG. 3a). […] Secondarily, to further explore the ability of CASIN to mobilize LT-HSC which is crucial for long-term repopulation of the mobilized cells, serial transplantations were carried out, where 20 million PB from CASIN-mobilized C57Bl/6 mice was transplanted into primary recipient of NOD/SCID mice, and subsequent secondary and tertiary transplants were finished as well using prior BMs (FIG. 3c). Donor chimerisms were assessed by using H2K^b congenic marker which is positive for donors of C57Bl/6 strain and negative for recipients of NOD/SCID strain. […] Therefore, the studies show CASIN can efficiently mobilize colony-forming hematopoietic progenitors and LT-HSCs with self-renewal and multi-lineage differentiation capacity. Thirdly, to further investigate the potential of CASIN to vacate the BM niche after mobilization, six-color staining of the BM cells was performed from C57Bl/6 mice with or without CASIN treatment followed by FACS analysis. […]

Cdc42 [5] = target: Cdc42 (Homo sapiens, UniProt P60953); test: Rho GTPase effector pulldown in human CD34+ umbilical cord blood cells, Cdc42; type: cell-based; design: endogenous in cells; host or cells: human CD34+ umbilical cord blood cells (HCB); conditions: human CD34^+ HCBs
Sequence of Cdc42 (Homo sapiens, UniProt P60953) (P60953 whole entry): as the sequence (P60766 whole entry) above
Procedure: as §1
To analyze the effects of CASIN on the formation of active GTP-bound Cdc42, RhoA, and Rac1, effector pulldown assays were carried out as described previously. Cdc42GAP^−/− MEF, LDBM, CD34^+ hCB cells were treated with CASIN at doses of 5-20 μM in parallel with vehicle control for 2 hrs after overnight starvation, and stimulated with cytokines subsequently. […]

OCCNC1CCCc2c1[nH]c1ccc(-c3ccccc3)cc21 (stereo not drawn) [CASIN]
progenitor cells found in spleen and liver [1]: increased level | adhesion activity of human progenitors [2]: significantly dampened | MEF cells' ability of adhesion, migration and actin polymerization (Cdc42WT/WT MEF cells): impairs | mobilization in comparison and in combination with G-CSF [3]: more effective mobilization than G-CSF | Cdc42 activity in LDBM cells after in vivo administration (Cdc42 [4]): really down | Cdc42 activity (Cdc42 [5]): specifically inhibit

From patent publication US9433663B2, “Mobilization of hematopoietic stem cells” (Children's Hospital Medical Center, priority 2008, dated 2016)
